Data reported in ChEMBL document CHEMBL1122779, “Antiinflammatory agents. 3. Synthesis and pharmacological evaluation of 2-amino-3-benzoylphenylacetic acid and analogues” (J Med Chem, 1984).

Assays:
Cyclooxygenase = target: T1, Cyclooxygenase (Bos taurus, UniProt O62664+O62698)
T1 sequence (O62664 whole entry): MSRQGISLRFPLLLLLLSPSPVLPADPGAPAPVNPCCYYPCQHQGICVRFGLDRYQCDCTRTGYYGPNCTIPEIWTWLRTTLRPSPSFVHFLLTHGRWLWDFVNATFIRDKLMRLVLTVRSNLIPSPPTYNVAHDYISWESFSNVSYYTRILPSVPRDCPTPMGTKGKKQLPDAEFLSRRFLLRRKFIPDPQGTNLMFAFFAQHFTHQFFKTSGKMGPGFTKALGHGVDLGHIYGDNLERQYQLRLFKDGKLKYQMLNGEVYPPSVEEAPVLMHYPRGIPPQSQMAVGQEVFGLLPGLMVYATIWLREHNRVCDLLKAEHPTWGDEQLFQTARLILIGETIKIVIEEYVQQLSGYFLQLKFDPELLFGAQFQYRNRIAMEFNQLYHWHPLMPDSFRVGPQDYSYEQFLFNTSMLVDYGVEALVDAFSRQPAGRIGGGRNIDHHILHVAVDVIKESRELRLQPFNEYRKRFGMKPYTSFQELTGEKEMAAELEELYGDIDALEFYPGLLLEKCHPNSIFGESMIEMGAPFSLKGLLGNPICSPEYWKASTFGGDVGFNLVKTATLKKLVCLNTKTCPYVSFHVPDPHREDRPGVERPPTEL
T1 sequence (O62698 whole entry): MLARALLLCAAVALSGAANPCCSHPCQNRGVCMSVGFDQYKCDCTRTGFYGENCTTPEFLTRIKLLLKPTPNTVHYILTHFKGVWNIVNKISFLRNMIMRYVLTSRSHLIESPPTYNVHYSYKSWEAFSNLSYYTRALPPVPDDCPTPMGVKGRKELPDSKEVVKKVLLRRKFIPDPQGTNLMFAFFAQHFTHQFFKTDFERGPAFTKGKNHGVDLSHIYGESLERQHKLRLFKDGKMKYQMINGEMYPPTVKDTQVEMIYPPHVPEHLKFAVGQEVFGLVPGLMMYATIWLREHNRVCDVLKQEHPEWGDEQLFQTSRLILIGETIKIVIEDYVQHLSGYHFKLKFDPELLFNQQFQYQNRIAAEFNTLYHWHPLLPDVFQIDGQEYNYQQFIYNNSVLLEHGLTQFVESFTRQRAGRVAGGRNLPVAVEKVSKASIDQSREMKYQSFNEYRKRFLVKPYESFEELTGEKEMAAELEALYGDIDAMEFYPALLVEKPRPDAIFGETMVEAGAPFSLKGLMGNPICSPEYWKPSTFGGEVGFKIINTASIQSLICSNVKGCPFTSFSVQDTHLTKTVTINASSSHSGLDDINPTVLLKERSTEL
Description: Inhibition of prostaglandin G/H synthase obtained from bovine seminal vesicles.

Rattus norvegicus [1] = assay: Percent change in average volume of pleural fluid at a dose of 100 mg/kg and 5-h response by Evans blue-carrageenan induced pleural effusion assay.; assay type: functional
Rattus norvegicus [2] = assay: Percent change in average volume of pleural fluid at a dose of 4.0 mg/kg and 5-h response by Evans blue-carrageenan induced pleural effusion assay.; assay type: functional
Rattus norvegicus [3] = assay: Acute gastric toxicity (single oral dose) in male fasted rats; assay type: organism-based, Stomach; settings: in vivo
Rattus norvegicus [4] = organism: Rattus norvegicus; assay: Evaluated for acute potency in pleural effusion assay; assay type: functional
Mus musculus [5] = assay: Oral analgesic activity was determined in mice by the acetylcholine-induced abdominal constriction assay upon ip administration of acetylcholine bromide 5 hours following oral administration; assay type: functional; settings: Abdomen
Rattus norvegicus [6] = organism: Rattus norvegicus; assay: Evaluated for chronic potency in adjuvant arthritis assay; assay type: functional
Rattus norvegicus [7] = assay: Percent change in average volume of pleural fluid at a dose 4 mg/kg of indomethacin and 5-h response is evaluated by Evans blue-carrageenan induced pleural effusion assay; assay type: functional
Mus musculus [8] = assay: Oral analgesic activity was determined in mice by the acetylcholine-induced abdominal constriction assay upon ip administration of acetylcholine bromide 20 min following oral administration; assay type: functional; settings: Abdomen
Rattus norvegicus [9] = assay: Evaluated for chronic intestinal toxicity (multiple oral dose) in rats; assay type: organism-based; settings: in vivo

Row | SMILES | IC50 (Cyclooxygenase) [µM] | Change (Rattus norvegicus [1]) [%] | Change (Rattus norvegicus [2]) [%] | Gastric toxicity (Rattus norvegicus [3]) | Potency (Rattus norvegicus [4]) | ED50 (Mus musculus [5]) [mg/kg] | Potency (Rattus norvegicus [6]) | Change (Rattus norvegicus [7]) [%] | ED50 (Mus musculus [8]) [mg/kg] | Intestinal toxicity (Rattus norvegicus [9])
1 | Nc1c(CC(=O)[O-])cccc1C(=O)c1ccc(C(F)(F)F)cc1.[Na+] | 1 | -24 | -38 | – | – | – | – | – | – | –
2 | Cc1ccc(C(=O)c2cc(Cl)cc(CC(=O)[O-])c2N)cc1.[Na+] | 0.02 | -44 | -35 | 0.7 | 1.6 | 0.43 | 0.1 | -40 | 0.1 | –
3 | CSc1ccc(C(=O)c2cc(C)cc(CC(=O)[O-])c2N)cc1.[Na+] | 0.4 | -47 | -26 | – | – | – | – | -42 | – | –
4 | Cc1ccc(CC(=O)[O-])c(N)c1C(=O)c1ccccc1.[Na+] | > 1000 | -13 | -38 | – | – | – | – | -1 | – | –
5 | Nc1c(CC(=O)[O-])cc(F)cc1C(=O)c1ccc(F)cc1.[Na+] | 0.2 | -42 | -42 | 0.37 | 1.4 | – | 0.01 | -40 | 0.71 | –
6 | Cc1ccccc1C(=O)c1cccc(CC(=O)[O-])c1N.[Na+] | 1 | -32 | -13 | – | – | – | – | -25 | – | –
7 | Nc1c(CC(=O)[O-])cccc1C(=O)c1cccc(Cl)c1.[Na+] | > 1000 | -35 | -15 | – | – | – | – | -33 | – | –
8 | Nc1c(CC(=O)[O-])cccc1C(=O)c1ccc(-c2ccccc2)cc1.[Na+] | 0.08 | -14 | -15 | – | – | – | – | -36 | – | –
9 | CSc1ccc(C(=O)c2cc(F)cc(CC(=O)[O-])c2N)cc1.[Na+] | 0.008 | – | -28 | – | 0.4 | > 1 | 0.03 | -33 | 0.1 | –
10 | Cc1ccc(C(=O)c2cccc(CC(=O)[O-])c2N)c(C)c1.[Na+] | 0.1 | -38 | -3 | – | – | – | – | -40 | – | –
11 | Nc1c(CC(=O)[O-])cc(F)cc1C(=O)c1ccc(Cl)cc1Cl.[Na+] | 0.1 | -46 | -41 | 1 | 1.2 | 0.65 | 0.13 | -45 | 0.16 | –
12 | Nc1c(CC(=O)[O-])cccc1C(=O)c1ccc(Cl)c(Cl)c1.[Na+] | 50 | – | -10 | – | – | – | – | -30 | – | –
13 | COc1cc(CC(=O)[O-])c(N)c(C(=O)c2ccc(Cl)cc2)c1.[Na+] | 12 | -36 | -26 | – | – | – | – | -37 | – | –
14 | Nc1c(CC(=O)[O-])cc(Br)cc1C(=O)c1ccc(Cl)cc1.[Na+] | 0.6 | -42 | -26 | – | – | – | – | -40 | – | –
15 | Cc1ccc(C(=O)c2ccccc2)c(N)c1CC(=O)[O-].[Na+] | 3 | -39 | 2 | – | – | – | – | -38 | – | –
16 | Nc1c(CC(=O)[O-])cc(Br)cc1C(=O)c1ccc(Br)cc1.[Na+] | 0.8 | -34 | -30 | 1.1 | 4.2 | 0.2 | 2.5 | -33 | > 0.32 | 1
17 | COc1cc(CC(=O)[O-])c(N)c(C(=O)c2ccc(Br)cc2)c1.[Na+] | 0.9 | -33 | -28 | – | – | – | – | -25 | – | –
18 | Cc1ccc(C(=O)c2cc(C)cc(CC(=O)[O-])c2N)cc1.[Na+] | 30 | -33 | -12 | – | – | – | – | -42 | – | –

Row | SMILES | IC50 (Cyclooxygenase) [µM] | Change (Rattus norvegicus [1]) [%] | Change (Rattus norvegicus [2]) [%] | Gastric toxicity (Rattus norvegicus [3]) | Potency (Rattus norvegicus [4]) | ED50 (Mus musculus [5]) [mg/kg] | Potency (Rattus norvegicus [6]) | Change (Rattus norvegicus [7]) [%] | ED50 (Mus musculus [8]) [mg/kg] | Intestinal toxicity (Rattus norvegicus [9])
19 | CSc1ccc(C(=O)c2cccc(CC(=O)[O-])c2N)cc1.[Na+] | 0.1 | – | -21 | – | – | – | – | -30 | – | –
20 | Nc1c(CC(=O)[O-])cccc1C(=O)c1ccccc1Cl.[Na+] | 0.3 | -42 | -22 | – | – | – | – | -33 | – | –
21 | Cc1ccc(C(=O)c2cc(F)cc(CC(=O)[O-])c2N)cc1.[Na+] | 0.07 | -49 | -32 | – | – | – | – | -36 | – | –
22 | Nc1c(CC(=O)[O-])cc(Cl)cc1C(=O)c1ccc(O)cc1.[Na+] | 30 | -21 | -3 | – | – | – | – | -40 | – | –
23 | Nc1c(CC(=O)[O-])cc(Cl)cc1C(=O)c1ccccc1.[Na+] | 1 | – | -17 | – | – | – | – | -35 | – | –
24 | Nc1c(CC(=O)[O-])cc(Cl)cc1C(=O)c1ccc(Br)cc1Cl.[Na+] | 0.05 | -37 | -25 | 1.2 | 4.9 | 0.19 | 2.5 | -36 | 0.66 | 3.3
25 | Nc1c(CC(=O)[O-])ccc(Cl)c1C(=O)c1ccccc1.[Na+] | 37 | -45 | -4 | – | – | – | – | -35 | – | –
26 | CSc1ccc(C(=O)c2cc(Cl)cc(CC(=O)[O-])c2N)cc1.[Na+] | 0.02 | -43 | -43 | 0.9 | 1.8 | 1.9 | 0.1 | -40 | 0.1 | –
27 | Cc1cc(CC(=O)[O-])c(N)c(C(=O)c2ccc(Br)cc2)c1.[Na+] | 0.7 | -39 | -31 | 1.2 | 2.8 | 0.7 | 1 | -36 | 0.72 | 1.1
28 | Cc1ccc(C(=O)c2cccc(CC(=O)[O-])c2N)cc1.[Na+] | 0.3 | – | -17 | – | – | – | – | -39 | – | –
29 | Cc1cc(CC(=O)[O-])c(N)c(C(=O)c2ccccc2)c1.[Na+] | 11 | -35 | -11 | – | – | – | – | -25 | – | –
30 | Nc1c(CC(=O)[O-])cccc1C(=O)c1ccc(Br)cc1Cl.[Na+] | 0.05 | -37 | -26 | 5.6 | 1.6 | 1.6 | 7.4 | -32 | 0.12 | 1.6
31 | Cc1cc(CC(=O)[O-])c(N)c(C(=O)c2ccc(F)cc2)c1.[Na+] | 17 | -35 | 0 | – | – | – | – | -42 | – | –
32 | Nc1c(CC(=O)[O-])cc(F)cc1C(=O)c1ccccc1.[Na+] | 0.2 | -33 | -9 | – | – | – | – | -20 | – | –
33 | COc1ccc(C(=O)c2cccc(CC(=O)[O-])c2N)cc1.[Na+] | 68 | – | -10 | – | – | – | – | -35 | – | –
34 | Nc1c(CC(=O)[O-])cccc1C(=O)c1ccc(F)cc1.[Na+] | 0.9 | -36 | 0 | – | – | – | – | -35 | – | –
35 | Cc1cc(CC(=O)[O-])c(N)c(C(=O)c2ccc(Cl)cc2Cl)c1.[Na+] | 1 | -43 | -24 | – | – | – | – | -45 | – | –
